Test [1] relates to HLA-A*02:01 transgenic mouse. The test can be described thus: Test 11: in vivo adjuvant activity, cocktail vaccine f (emulsified composition 1), IFNγ ELISPOT. The conditions noted are these: added to cocktail vaccine f (emulsified composition 1); 0.04 nmol or 0.4 nmol per body, twice; FIG. 10 and 11. The procedure:
(§1) Evaluation of In Vivo Adjuvant Activity in HLA-A*02:01 Transgenic Mouse
The in vivo adjuvant activity of the compound of Example 1 was evaluated in the following procedure. To a cocktail vaccine (emulsified composition 1) comprising Compound of formula 4 prepared in Reference example 8 and Peptide SEQ ID No. 3 prepared in Reference example 3 (hereinafter, referred to as “cocktail vaccine f”) was added the compound prepared in Example 1 to prepare a vaccine. The vaccine was administered to a HLA-A*02:01 transgenic mouse, and the adjuvant activity of the vaccine was evaluated by the method of testing antigen-specific CTL induction.
(§2) For example, the above emulsified composition 1 was prepared as follows. 95.8% (w/w) of soybean oil, 3% (w/w) of PEG-30 dipolyhydroxy stearate, and 1.2% (w/w) of polysorbate 80 were mixed to prepare an oil-phase mixture. The amount of the preparation was adjusted as appropriate. Compound of formula 4 and Peptide SEQ ID No. 3 were mixed with pH 2.5 buffer (10 mM tartaric acid, 10% trehalose) to adjust each concentration to 3 mg/mL and 2.25 mg/mL, respectively. The prepared peptide dilution was mixed with an equal volume of the oil-phase mixture to give an emulsified product, cocktail vaccine f. […] Then, after removal of the supernatant from the wells, stained spots on the ELISPOT plate were counted.

Test [2] deals with HLA-A*02:01 transgenic mouse. The test can be described thus: Test 13: in vivo adjuvant activity, cocktail vaccine h (emulsified composition 3), IFNγ ELISPOT. The conditions noted are these: added to cocktail vaccine h (emulsified composition 3); 0.04 nmol per body, twice; FIG. 14. The procedure: as §1
The in vivo adjuvant activity of the compound of Example 1 was evaluated in the following procedure. To a cocktail vaccine (emulsified composition 3) comprising Compound of formula 4 prepared in Reference example 8 and Peptide SEQ ID No. 3 prepared in Reference example 3 (hereinafter, referred to as “cocktail vaccine h”) was added the compound prepared in Example 1 to prepare a vaccine. The vaccine was administered to a HLA-A*02:01 transgenic mouse, and the adjuvant activity of the vaccine was evaluated by the method of testing antigen-specific CTL induction.
as §2, with “composition 3” for “composition 1”, “of isopropyl myristate,” for “of soybean oil,”, “vaccine h.” for “vaccine f.”

With `CCCCCNc1nc(N)nc(C)c1Cc1ccc(CN(C)CCOCCOCCOCCOCCO)cc1OC` [Example 1, 1-(4-{[2-amino-4-methyl-6-(pentylamino)pyrimidin-5-yl]methyl}-3-methoxyphenyl)-2-methyl-5,8,11,14-tetraoxa-2-azahexadecan-16-ol·trifluoroacetate], the “CTL counts responsive to Peptide SEQ ID No. 1 or SEQ ID No. 4 compared with adding no compound” value in test [1] is “more”. For the same compound, the “CTL counts responsive to Peptide SEQ ID No. 1 compared with adding no compound” value in test [2] is given as “more”.

Source of the values: US12427192B2, “Water soluble adjuvant and composition containing same” (Sumitomo Pharma Co., Ltd., priority 2019, dated 2025).
